# Measurements as given in the supplement of paper PMC10307832.
# Legend:
# Assay in all cases: relative viability (nuclei count vs DMSO), 5 days (fraction); higher = more cells survive
# [1] = compound: C1=CC=C(C(=C1)C2=CC=C(C=C2)C3=CSC4=C3C(=C(C(=O)N4)C#N)O)O + Cc1cc(Nc2cc(N3CCN(C)CC3)nc(Sc3ccc(NC(=O)C4CC4)cc3)n2)n[nH]1 [Tozasertib] (partner 0.1 µM)
# Procedure, shortened: (§1)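 Lung cancer cell lines were seeded in 1536-well plates and dosed by pin tool the next day, with either a single drug or a fixed anchor-drug dose combined with five library-drug doses (not always all listed) spaced in √10 steps. Five days later, one step fixed the cells and stained their nuclei (final 0.05% Triton X-100, 1% formaldehyde, 1 ug/ml Hoechst), and nuclei were counted on 4× images. Relative viability is the nuclei count in treated wells divided by the count in vehicle wells, and each value is the median of duplicate plates.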
# [2] = compound: CC1=CN2C(=O)C=C(N=C2C(=C1)C(C)NC3=CC=CC=C3)N4CCOCC4 [TGX 221] + CCNC(=O)c1noc(-c2cc(C(C)C)c(O)cc2O)c1-c1ccc(CN2CCOCC2)cc1 [Luminespib] (partner 0.01 µM)
# Procedure, shortened: as §1
# [3] = compound: CC1=CN2C(=O)C=C(N=C2C(=C1)C(C)NC3=CC=CC=C3)N4CCOCC4 [TGX 221] + Cc1cc(Nc2cc(N3CCN(C)CC3)nc(Sc3ccc(NC(=O)C4CC4)cc3)n2)n[nH]1 [Tozasertib] (partner 0.1 µM)
# Procedure, shortened: as §1
# [4] = compound: O=C(CCCCCCNC(=O)c1cnc(N(c2ccccc2)c2ccccc2)nc1)NO [Ricolinostat] + NC(=O)Nc1cc(-c2cccc(F)c2)sc1C(=O)N[C@H]1CCCNC1 [AZD7762] (partner 0.2 µM)
# Procedure, shortened: as §1
Cell Line,relative viability ([1]; first compound 0.08 µM),relative viability ([1]; first compound 0.253 µM),relative viability ([1]; first compound 0.8 µM),relative viability ([1]; first compound 2.53 µM),relative viability ([1]; first compound 8 µM),relative viability ([2]; first compound 0.08 µM),relative viability ([2]; first compound 0.253 µM),relative viability ([2]; first compound 0.8 µM),relative viability ([2]; first compound 2.53 µM),relative viability ([2]; first compound 8 µM),relative viability ([3]; first compound 0.08 µM),relative viability ([3]; first compound 0.253 µM),relative viability ([3]; first compound 0.8 µM),relative viability ([3]; first compound 2.53 µM),relative viability ([3]; first compound 8 µM),relative viability ([4]; first compound 0.08 µM),relative viability ([4]; first compound 0.253 µM),relative viability ([4]; first compound 0.8 µM),relative viability ([4]; first compound 2.53 µM)
NCI-H522,0.523,0.435,0.548,0.541,0.541,1.09,1.04,1.01,1.11,1.42,0.52,0.559,0.575,0.502,0.513,0.877,0.838,0.853,0.822
NCI-H1666,0.556,0.658,0.577,0.598,0.553,1.08,0.977,1.03,1.02,0.975,0.6,0.591,0.6,0.576,0.538,0.705,0.886,0.714,0.768
NCI-H1915,0.428,0.484,,0.491,0.382,0.726,0.747,0.745,0.757,0.725,0.399,0.406,0.422,0.389,0.377,0.652,0.653,0.685,0.573
RERF-LC-KJ,0.488,0.474,0.52,0.527,0.463,1.13,1.13,1.26,1.21,1.02,0.465,0.555,0.496,0.488,0.382,0.864,0.916,0.832,0.894
NCI-H2085,0.8,0.801,0.874,0.749,0.74,0.518,0.361,0.335,0.223,0.319,0.792,0.729,0.598,0.541,0.427,,0.912,0.934,0.784
LCLC-103H,0.481,0.478,0.592,0.503,0.457,1.01,0.988,1.02,0.806,0.763,0.409,0.466,0.465,0.434,0.354,0.694,0.754,0.749,0.626
NCI-H2342,0.498,0.493,0.543,0.399,0.48,0.919,0.652,0.584,0.544,0.607,0.422,0.484,0.6,0.547,0.447,0.413,0.443,0.531,0.451
PC-14,0.63,0.753,0.542,0.556,0.436,0.146,0.135,0.138,0.133,0.151,0.619,0.615,0.631,0.589,0.459,0.26,0.321,0.306,0.26
NCI-H2126,0.687,0.956,0.893,0.923,0.809,0.909,0.832,0.842,0.764,0.808,0.826,0.886,0.797,0.768,0.756,0.865,1.04,0.971,0.887
NCI-H2347,0.574,0.461,1.06,0.526,0.583,0.595,0.335,0.437,0.325,0.274,0.514,0.418,0.538,0.422,0.33,0.57,0.718,0.665,0.478
HCC-15,0.474,0.579,0.371,0.554,0.371,0.294,0.335,0.373,0.204,0.362,0.438,0.463,0.407,0.323,0.237,1.09,1.11,1.37,1.29
HCC-44,,1.36,0.876,1.03,0.744,,1.09,1.03,1.04,0.734,,0.947,1.03,0.92,0.695,1.05,0.972,0.993,1.05
NCI-H1355,0.478,0.516,0.547,0.518,0.476,0.713,0.59,0.674,0.588,0.621,0.541,0.564,0.621,0.483,0.382,0.689,0.853,0.674,0.575
NCI-H2405,0.718,0.797,0.733,0.725,0.704,0.622,0.533,0.599,0.623,0.47,0.737,0.771,0.693,0.745,0.697,0.698,0.781,0.738,0.76
EKVX,0.519,0.484,0.349,0.546,0.336,0.832,0.724,0.791,0.715,0.738,0.381,0.343,0.329,0.317,0.272,0.673,0.732,0.654,0.487
NCI-H1993,0.592,0.524,0.534,0.592,0.571,0.781,0.711,0.724,0.869,0.805,0.498,0.53,0.553,0.482,0.572,0.53,0.884,0.55,0.459
HOP-62,0.363,0.363,0.337,0.335,0.335,0.919,0.951,0.981,0.88,0.632,0.372,0.416,0.34,0.387,0.316,0.352,0.521,0.53,0.277
